Columns and labels:
[1] = in vivo; cited from earlier work
[2] = system: β-carotene oxidation catalyzed by metmyoglobin; assay: β-carotene co-oxidation in simulated gastric fluid; assay type: biochemical
Procedure: Here B carotene co-oxidation was determined in order to identify free radical damage during lipid peroxidation in the same model system of acid gastric fluid (FIG. 2).
However, the addition of catechin to the same system containing metmyoglobin inhibited β-carotene oxidation by 100% (FIG. 2).

[3] = system: peroxides / lipid peroxidation catalyzed by metmyoglobin; assay: Simulated gastric system comprising polyphenol and metmyoglobin catalyst, with antacid; assay type: biochemical; conditions: low acidic conditions obtained by addition of antacid, metmyoglobin catalyst
From the text: An unexpected phenomenon established by the inventors of the present invention is that that in the stomach, generation or breakdown of peroxides by endogenous catalysts or catalysts obtained from food products, or components thereof, and food supplements can be selected by polyphenols and antacids. In other words, the appropriate combination of polyphenol and antacids can invert the catalyzed reaction from pro-oxidation to antioxidation consequently attenuating lipid peroxidation in the stomach.
The terms “a gastric-simulating system” or “simulated gastric system” are interchangeably used herein to describe an experimental setup comprising components which simulate, in-vitro, the environment of the GI tracts or components thereto. In a particular example, a gastric simulating system may comprise the following components: HCl 0.1N and pepsin (Kanner et al. ibid).
Hydroperoxides measurement in linoleic acid emulsions: Catechin was dissolved in 10% ethanol in water and the reaction tubes were incubated in triplicate in a shaking bath at 37° C. for 180 min. Samples of 25 or 50 μl were taken from the reaction tubes during the incubation and added to 475 or 950 μl, respectively, of FOX2 reagent. Before each experiment, old stock solution of linoleic acid was mixed with fresh solution in order to maintain an accurately consistent initial level of hydroperoxides.

Compound	raises pH of the stomach to [1]	inhibition of β-carotene oxidation ([2]; acid gastric fluid model system containing metmyoglobin)	β-carotene co-oxidation ([2]; low acidic conditions obtained by addition of antacid, metmyoglobin catalyst)	lipid peroxidation [3]	peroxide generation [3]
O=C([O-])[O-].[Ca+2] [Calcium carbonate]	≤ 7.0 pH	–	–	–	–
[Mg+2].[OH-].[OH-] [Magnesium hydroxide]	9 pH	–	–	–	–
catechin	–	100%	completely prevented	completely prevented	zero

Source: US9060959B2, “Synergistic compositions and method for potentiating anti-oxidative activity” (The State of Israel, Ministry of Agriculture & Rural …, priority 2003, dated 2015)
